Data published in patent US20220241249A1, “PHARMACEUTICAL COMPOSITION AND KIT CONTAINING NOVEL PENAM DERIVATIVE OR SALT THEREOF AND ONE OR MORE COMPOUNDS SELECTED FROM beta-LACTAMASE INHIBITORY COMPOUND AND ANTIBACTERIAL COMPOUND OR SALTS THEREOF” (priority 2019, published 2022).
≈ marks a conversion by molar mass, not a printed value. Where two headings read alike, the source gives them in different places.

Key:
Experiment in all cases: Antibacterial activity evaluation test, MIC by broth microdilution (CLSI)
Format in all cases: cell-based
[1] = test system: AmpC-derepressed Pseudomonas aeruginosa mutant strain (S-3028); conditions: Pseudomonas aeruginosa
Procedure: (§1) The minimum inhibitory concentration (MIC) was measured according to the Clinical and Laboratory Standards Institute (CLSI) standard method by using the following broth microdilution method.
(§2) As bacteria, a Pseudomonas aeruginosa strain ATCC27853, an AmpC-derepressed Pseudomonas aeruginosa mutant strain (S-3028), an IMP-1-containing Pseudomonas aeruginosa strain (S-2838), a VIM-2-containing Pseudomonas aeruginosa strain (S-3779), a GES-19 and GES-20-containing Pseudomonas aeruginosa strain (S-3759), a CTX-M-15-containing Escherichia coli strain (TK-1747), a KPC-2-containing Klebsiella pneumoniae strain (Y-995), an OXA-48-containing Klebsiella pneumoniae strain (Y-1062), and an NDM-1-containing Klebsiella pneumoniae strain (Y-1007) were used. The test bacterial cells that had been cultured overnight on a Mueller Hinton agar medium were scraped off, suspended at a density equivalent to 0.5 McFarland standard, and diluted 10-fold, thereby obtaining an inoculum. A cation-adjusted Mueller Hinton medium containing a test compound was inoculated with 0.005 mL of the inoculum, and the cells were cultured at 35° C. for 16 to 20 hours. The minimum drug concentration at which the growth of bacteria was not visually observed was defined as MIC (μg/mL).
(§3) An antibacterial activity evaluation test was performed in the same manner as in Test Example 1.

[2] = test system: CTX-M-15-containing Escherichia coli strain (TK-1747); conditions: Escherichia coli
Procedure: as §1, §2, §3

[3] = test system: GES-19 and GES-20-containing Pseudomonas aeruginosa strain (S-3759); conditions: Pseudomonas aeruginosa
Procedure: as §1, §2, §3

[4] = test system: IMP-1-containing Pseudomonas aeruginosa strain (S-2838); conditions: Pseudomonas aeruginosa
Procedure: as §1, §2, §3

[5] = test system: KPC-2-containing Klebsiella pneumoniae strain (Y-995); conditions: Klebsiella pneumoniae
Procedure: as §1, §2, §3

[6] = test system: NDM-1-containing Klebsiella pneumoniae strain (Y-1007); conditions: Klebsiella pneumoniae
Procedure: as §1, §2, §3

[7] = test system: OXA-48-containing Klebsiella pneumoniae strain (Y-1062); conditions: Klebsiella pneumoniae
Procedure: as §1, §2, §3

[8] = test system: Pseudomonas aeruginosa strain ATCC27853; conditions: ATCC27853
Procedure: as §1, §2, §3

[9] = test system: VIM-2-containing Pseudomonas aeruginosa strain (S-3779); conditions: Pseudomonas aeruginosa
Procedure: as §1, §2, §3

Compound | MIC [1] [µg/mL] | MIC [2] [µg/mL] | MIC [3] [µg/mL] | MIC [4] [µg/mL] | MIC [5] [µg/mL] | MIC [6] [µg/mL] | MIC [7] [µg/mL] | MIC ([8]; Pseudomonas aeruginosa ATCC 27853, 35° C., 16 to 20 hours, read-out: MIC) [µg/mL] | MIC [9] [µg/mL] | MIC ([8]; Pseudomonas aeruginosa) [µg/mL]
CC(C)(O/N=C(\C(=O)N[C@@H]1C(=O)N2C[C@@](C(=O)O)(N3CCN(NC(=O)C(=O)NCCNC(=O)c4ccc(O)c(O)c4Cl)C3=O)S[C@H]12)c1csc(N)n1)C(=O)O [Example 68, (3R,5R,6R)-6-((Z)-2-(2-aminothiazol-4-yl)-2-(((2-carboxypropan-2-yl)oxy)imino)acetamido)-3-(3-(2-((2-(2-chloro-3,4-dihydroxybenzamido)ethyl)amino)-2-oxoacetamido)-2-oxoimidazolidin-1-yl)-7-oxo-4-thia-1-azabicyclo[3.2.0]heptane-3-carboxylic acid] | 0.25 (≈ 0.302 µM) | 1 (≈ 1.21 µM) | 4 (≈ 4.84 µM) | 1 (≈ 1.21 µM) | 0.5 (≈ 0.604 µM) | < 0.06 | 1 (≈ 1.21 µM) | 1 (≈ 1.21 µM) | 2 (≈ 2.42 µM) | –
CC(C)(O/N=C(\C(=O)N[C@@H]1C(=O)N2C[C@@](C(=O)O)(N3CC(CNC(=O)c4ccc(O)c(O)c4Cl)OC3=O)S[C@H]12)c1csc(N)n1)C(=O)O (stereo partly drawn) [Example 73, (3R,5R,6R)-6-((Z)-2-(2-aminothiazol-4-yl)-2-(((2-carboxypropan-2-yl)oxy)imino)acetamido)-3-(5-((2-chloro-3,4-dihydroxybenzamido)methyl)-2-oxooxazolidin-3-yl)-7-oxo-4-thia-1-azabicyclo[3.2.0]heptane-3-carboxylic acid] | 0.25 (≈ 0.343 µM) | 0.25 (≈ 0.343 µM) | 0.5 (≈ 0.687 µM) | 0.5 (≈ 0.687 µM) | 16 (≈ 22 µM) | 0.12 (≈ 0.165 µM) | 1 (≈ 1.37 µM) | – | 1 (≈ 1.37 µM) | 0.5 (≈ 0.687 µM)
CC(C)(O/N=C(\C(=O)N[C@@H]1C(=O)N2C[C@@](C(=O)O)(n3cc(CNC(=O)c4ccc(O)c(O)c4Cl)nn3)S[C@H]12)c1csc(N)n1)C(=O)O [Example 74, (3R,5R,6R)-6-((Z)-2-(2-aminothiazol-4-yl)-2-(((2-carboxypropan-2-yl)oxy)imino)acetamido)-3-(4-((2-chloro-3,4-dihydroxybenzamido)methyl)-1H-1,2,3-triazol-1-yl)-7-oxo-4-thia-1-azabicyclo[3.2.0]heptane-3-carboxylic acid] | 0.5 (≈ 0.704 µM) | 1 (≈ 1.41 µM) | 1 (≈ 1.41 µM) | 0.25 (≈ 0.352 µM) | 2 (≈ 2.82 µM) | 0.25 (≈ 0.352 µM) | 4 (≈ 5.63 µM) | – | 1 (≈ 1.41 µM) | 0.5 (≈ 0.704 µM)
Nc1nc(/C(=N/OC2(C(=O)O)CC2)C(=O)N[C@@H]2C(=O)N3C[C@@](C(=O)O)(N4CCN(NC(=O)C(=O)c5ccc(O)c(O)c5Cl)C4=O)S[C@H]23)c(Cl)s1 [Example 76, (3R,5R,6R)-6-((Z)-2-(2-amino-5-chlorothiazol-4-yl)-2-((1-carboxycyclopropoxy)imino)acetamido)-3-(3-(2-(2-chloro-3,4-dihydroxyphenyl)-2-oxoacetamido)-2-oxoimidazolidin-1-yl)-7-oxo-4-thia-1-azabicyclo[3.2.0]heptane-3-carboxylic acid] | 0.12 (≈ 0.155 µM) | 0.06 (≈ 0.0776 µM) | 0.25 (≈ 0.323 µM) | 0.5 (≈ 0.646 µM) | 0.25 (≈ 0.323 µM) | 0.25 (≈ 0.323 µM) | 0.25 (≈ 0.323 µM) | – | 0.25 (≈ 0.323 µM) | 0.5 (≈ 0.646 µM)
Nc1nc(/C(=N/OC2(C(=O)O)CCC2)C(=O)N[C@@H]2C(=O)N3C[C@@](C(=O)O)(N4CCN(NC(=O)C(=O)c5ccc(O)c(O)c5Cl)C4=O)S[C@H]23)c(Cl)s1 [Example 78, (3R,5R,6R)-6-((Z)-2-(2-amino-5-chlorothiazol-4-yl)-2-((1-carboxycyclobutoxy)imino)acetamido)-3-(3-(2-(2-chloro-3,4-dihydroxyphenyl)-2-oxoacetamido)-2-oxoimidazolidin-1-yl)-7-oxo-4-thia-1-azabicyclo[3.2.0]heptane-3-carboxylic acid] | < 0.06 | 0.25 (≈ 0.317 µM) | 1 (≈ 1.27 µM) | 1 (≈ 1.27 µM) | 0.25 (≈ 0.317 µM) | < 0.06 | 0.25 (≈ 0.317 µM) | – | 0.25 (≈ 0.317 µM) | 0.5 (≈ 0.635 µM)
CC(C)(O/N=C(\C(=O)N[C@@H]1C(=O)N2C[C@@](C(=O)O)(N3CC(=O)N(NC(=O)C(=O)c4ccc(O)c(O)c4Cl)CC3=O)S[C@H]12)c1csc(N)n1)C(=O)O [Example 82, (3R,5R,6R)-6-((Z)-2-(2-aminothiazol-4-yl)-2-(((2-carboxypropan-2-yl)oxy)imino)acetamido)-3-(4-(2-(2-chloro-3,4-dihydroxyphenyl)-2-oxoacetamido)-2,5-dioxopiperazin-1-yl)-7-oxo-4-thia-1-azabicyclo[3.2.0]heptane-3-carboxylic acid] | 4 (≈ 5.2 µM) | 1 (≈ 1.3 µM) | 2 (≈ 2.6 µM) | 4 (≈ 5.2 µM) | 4 (≈ 5.2 µM) | 0.5 (≈ 0.65 µM) | 2 (≈ 2.6 µM) | – | 1 (≈ 1.3 µM) | 0.5 (≈ 0.65 µM)
CC(C)(O/N=C(\C(=O)N[C@@H]1C(=O)N2C[C@@](C(=O)O)(N3CCN(NC(=O)c4cc(Cl)c(O)c(O)c4Cl)C3=O)S[C@H]12)c1csc(N)n1)C(=O)O [Example 83, (3R,5R,6R)-6-((Z)-2-(2-aminothiazol-4-yl)-2-(((2-carboxypropan-2-yl)oxy)imino)acetamido)-3-(3-(2,5-dichloro-3,4-dihydroxybenzamido)-2-oxoimidazolidin-1-yl)-7-oxo-4-thia-1-azabicyclo[3.2.0]heptane-3-carboxylic acid] | 0.5 (≈ 0.669 µM) | 0.5 (≈ 0.669 µM) | 1 (≈ 1.34 µM) | 0.5 (≈ 0.669 µM) | 0.25 (≈ 0.334 µM) | < 0.06 | 2 (≈ 2.68 µM) | – | 0.5 (≈ 0.669 µM) | 0.25 (≈ 0.334 µM)
CC(C)(O/N=C(\C(=O)N[C@@H]1C(=O)N2C[C@@](C(=O)O)(N3CC[C@H](NC(=O)C(=O)c4ccc(O)c(O)c4Cl)C3=O)S[C@H]12)c1csc(N)n1)C(=O)O [Example 84, (3R,5R,6R)-6-((Z)-2-(2-aminothiazol-4-yl)-2-(((2-carboxypropan-2-yl)oxy)imino)acetamido)-3-((S)-3-(2-(2-chloro-3,4-dihydroxyphenyl)-2-oxoacetamido)-2-oxopyrrolidin-1-yl)-7-oxo-4-thia-1-azabicyclo[3.2.0]heptane-3-carboxylic acid] | 0.5 (≈ 0.676 µM) | < 0.06 | 1 (≈ 1.35 µM) | 0.5 (≈ 0.676 µM) | 0.5 (≈ 0.676 µM) | < 0.06 | < 0.06 | – | 0.5 (≈ 0.676 µM) | 0.5 (≈ 0.676 µM)
CC(C)(O/N=C(\C(=O)N[C@@H]1C(=O)N2C[C@@](C(=O)O)(N3CC[C@@H](NC(=O)C(=O)c4ccc(O)c(O)c4Cl)C3=O)S[C@H]12)c1csc(N)n1)C(=O)O [Example 85, (3R,5R,6R)-6-((Z)-2-(2-aminothiazol-4-yl)-2-(((2-carboxypropan-2-yl)oxy)imino)acetamido)-3-((R)-3-(2-(2-chloro-3,4-dihydroxyphenyl)-2-oxoacetamido)-2-oxopyrrolidin-1-yl)-7-oxo-4-thia-1-azabicyclo[3.2.0]heptane-3-carboxylic acid] | 0.12 (≈ 0.162 µM) | < 0.06 | 0.25 (≈ 0.338 µM) | 0.25 (≈ 0.338 µM) | < 0.06 | < 0.06 | 0.12 (≈ 0.162 µM) | – | 0.25 (≈ 0.338 µM) | 0.5 (≈ 0.676 µM)
CC(C)(O/N=C(\C(=O)N[C@@H]1C(=O)N2C[C@@](C(=O)O)(N3CCCN(NC(=O)C(=O)c4ccc(O)c(O)c4Cl)C3=O)S[C@H]12)c1csc(N)n1)C(=O)O [Example 86, (3R,5R,6R)-6-((Z)-2-(2-aminothiazol-4-yl)-2-(((2-carboxypropan-2-yl)oxy)imino)acetamido)-3-(3(-2-(2-chloro-3,4-dihydroxyphenyl)-2-oxoacetamido)-2-oxotetrahydropyrimidin-1(2H)-yl)-7-oxo-4-thia-1-azabicyclo[3.2.0]heptane-3-carboxylic acid] | 1 (≈ 1.32 µM) | 1 (≈ 1.32 µM) | 2 (≈ 2.65 µM) | 1 (≈ 1.32 µM) | 0.5 (≈ 0.662 µM) | < 0.06 | 1 (≈ 1.32 µM) | – | 2 (≈ 2.65 µM) | 4 (≈ 5.3 µM)
CC(C)(O/N=C(\C(=O)N[C@@H]1C(=O)N2C[C@@](C(=O)O)(N3CCN(NC(=O)C(=O)NNC(=O)C(=O)c4ccc(O)c(O)c4Cl)C3=O)S[C@H]12)c1csc(N)n1)C(=O)O [Example 88, (3R,5R,6R)-6-((Z)-2-(2-aminothiazol-4-yl)-2-(((2-carboxypropan-2-yl)oxy)imino)acetamido)-3-(3-(2-(2-(2-(2-chloro-3,4-dihydroxyphenyl)-2-oxoacetyl)hydradienyl)-2-oxoacetamido)-2-oxoimidazolidin-1-yl)-7-oxo-4-thia-1-azabicyclo[3.2.0]heptane-3-carboxylic acid] | 0.5 (≈ 0.604 µM) | 2 (≈ 2.42 µM) | 0.5 (≈ 0.604 µM) | 0.5 (≈ 0.604 µM) | 0.25 (≈ 0.302 µM) | < 0.06 | 0.5 (≈ 0.604 µM) | – | 0.5 (≈ 0.604 µM) | 0.5 (≈ 0.604 µM)
